The nature of series [1]: in vitro. The note with it: human, Caco-2, permeability. (Passage across Caco-2 layers is used to estimate intestinal permeability.)
Series [2] in a line: in vivo. The note with it: dog, plasma, po, 0.5 mg/kg.
Series [3] can be described thus: in vivo. The note with it: rat, plasma, po, 5 mg/kg.
Series [4] can be described thus: in vivo. As to conditions: mouse, plasma, po, 10 mg/kg.
Series [5] can be described thus: in vivo. The note with it: cynomolgus monkey, plasma, po, 0.5 mg/kg.
Series [6] in a line: physchem. The note with it: octanol/water, pH 6.5.

This note sets out measurements from ChEMBL document CHEMBL1146342, “Respiratory syncytial virus fusion inhibitors. Part 4: optimization for oral bioavailability” (Bioorg Med Chem Lett, 2007).

One may read the Papp as the rate of passage across a membrane or cell layer, normalised by area and donor concentration. Higher therefore signals ready permeation. For `O=c1n(Cc2nc3ccccc3n2CCCCF)c2cnccc2n1CC(F)(F)F`, the Papp in series [1] stood at 24.5 ×10⁻⁶ cm/s.
`CC(C)(C)n1c(=O)n(Cc2nc3ccccc3n2CCCC#N)c2cnccc21` came in with a Papp in series [1] of 21.4 ×10⁻⁶ cm/s.
The term AUC denotes concentration integrated over time. Read a high AUC as high exposure. For `CCS(=O)(=O)CCCn1c(Cn2c(=O)n(CC(F)(F)F)c3ccncc32)nc2ccccc21`, the AUC in series [2] is 438 ng·h/mL; in series [3] it was 133 ng·h/mL; in series [4], 2000 ng·h/mL; in series [5], 118 ng·h/mL.
In the case of `CC(C)n1c(=O)n(Cc2nc3ccccc3n2CCCC#N)c2cnccc21`, the apparent permeability (Papp) in series [1] is 16.9 ×10⁻⁶ cm/s.
Take `CS(=O)(=O)CCCn1c(Cn2c(=O)n(CC(F)(F)F)c3ccncc32)nc2ccccc21`: the AUC is 307 ng·h/mL in series [2], 40 ng·h/mL in series [3], 1430 ng·h/mL in series [4] and 185 ng·h/mL in series [5]. Besides, the Papp in series [1] was determined as 3.6 ×10⁻⁶ cm/s.
One may read the logD as lipophilicity at a set pH, counting ionised and neutral species. Read a low logD as lower lipophilicity. In the case of `N#CCCCn1c(Cn2c(=O)n(C3CC3)c3ccncc32)nc2ccccc21`, the AUC in series [2] was 755 ng·h/mL; in series [3], 973 ng·h/mL; in series [4] it was 600 ng·h/mL; in series [5], 270 ng·h/mL. The compound further showed a logD in series [6] of 2.1.
In series [1], `N#CCCCn1c(Cn2c(=O)n(CC(F)(F)F)c3ccncc32)nc2ccccc21` had a Papp of 19.7 ×10⁻⁶ cm/s.
